Source: US20250066371A1, “FLUOROALKOXYALKYLENE-DIHYDROIMIDAZO[5,1-D]TETRAZINONE COMPOUNDS AND RELATED COMPOUNDS AND THEIR USE IN TREATING MEDICAL CONDITIONS” (priority 2023, published 2025)

Tests used:
Assay in all cases: Cell panel nuclear dye assay
Type in all cases: cell-based
5637 = conditions: 120 h, Bladder, 5-day incubation
Experimental: (§1) Cells were grown in RPMI1640, 10% FBS, 2 mM L-alanyl-L-glutamine, 1 mM Na pyruvate, or a special medium. Cells were seeded into 384-well plates and incubated in a humidified atmosphere of 5% CO2 at 37° C. Compound was added the day following cell seeding. At the same time, a time zero untreated cell plate was generated. After a 5-day incubation period, cells were fixed and stained to allow fluorescence imaging of nuclei.
(§2) Compounds were serially diluted in 2-fold steps from the highest test concentration specified, and assayed over 10 concentrations with a maximum assay concentration of 0.1% DMSO. Automated fluorescence microscopy was carried out using a Molecular Devices ImageXpress Micro XL high-content imager, and images were collected with a 4× objective. 16-bit TIFF images were acquired and analyzed with MetaXpress 5.1.0.41 software.
(§3) Cell proliferation was measured by the fluorescence intensity of an incorporated nuclear dye. The output is referred to as the relative cell count, where the measured nuclear intensity is transformed to percent of control (POC) using the following formula: […]
(§4) Cell count IC50 is the test compound concentration at 50% of maximal possible response. EC50 is the test compound concentration at the curve inflection point or half the effective response (parameter C of the fitted curve solution). GI50 is the concentration needed to reduce the observed growth by half (midway between the curve maximum and the time zero value). Activity area is an estimate of the integrated area above the curve. Activity area values range from 0-10, where a value of zero indicates no inhibition of proliferation at all concentrations, and a value of 10 indicates complete inhibition of proliferation at all concentrations. In rare instances, values <0 or >10 may be observed. In these instances, values <0 should be considered as equivalent to 0, whereas values >10 should be considered equivalent to 10.

A-253 = conditions: Homo sapiens, A253, 120 h, Head & neck (epidermoid carcinoma, salivary gland), 5-day incubation
Experimental: as §1, §2, §3, §4

CCF-STTG1 = conditions: Homo sapiens, 120 h, Glioma (astrocytoma), 5-day incubation
Experimental: as §1, §2, §3, §4

DBTRG-05MG = conditions: Homo sapiens, 120 h, Glioma (glioblastoma multiforme), 5-day incubation
Experimental: as §1, §2, §3, §4

DMS53 = conditions: Homo sapiens, DMS-53, 120 h, Lung (SCLC), 5-day incubation
Experimental: as §1, §2, §3, §4

NCI-H661 = conditions: Homo sapiens, 120 h, Lung (NSCLC), 5-day incubation
Experimental: as §1, §2, §3, §4

NCI-H69 = conditions: Homo sapiens, 120 h, Lung (SCLC), 5-day incubation
Experimental: as §1, §2, §3, §4

SH-4 = conditions: Homo sapiens, 120 h, Melanoma, 5-day incubation
Experimental: as §1, §2, §3, §4

SHP-77 = conditions: Homo sapiens, SHP77, 120 h, Lung (SCLC), 5-day incubation
Experimental: as §1, §2, §3, §4

SJRH30 = conditions: Homo sapiens, 120 h, Sarcoma (rhabdomyosarcoma), 5-day incubation
Experimental: as §1, §2, §3, §4

ST486 = conditions: Homo sapiens, 120 h, Lymphoma (Burkitt's), 5-day incubation
Experimental: as §1, §2, §3, §4

SW1088 = conditions: Homo sapiens, 120 h, Glioma (astrocytoma), 5-day incubation
Experimental: as §1, §2, §3, §4

SW620 = conditions: Homo sapiens, SW-620, 120 h, Colon, 5-day incubation
Experimental: as §1, §2, §3, §4

SaOS2 = conditions: Homo sapiens, SAOS-2, 120 h, Osteosarcoma, 5-day incubation
Experimental: as §1, §2, §3, §4

TUR = conditions: 120 h, Lymphoma (histiocytic), 5-day incubation
Experimental: as §1, §2, §3, §4

VA-ES-BJ = conditions: 120 h, Sarcoma (epitheloid), 5-day incubation
Experimental: as §1, §2, §3, §4

NC(=O)c1ncn2c(=O)n(CCOC(F)(F)F)nnc12 [Compound I-1, 4-Oxo-3-(2-(trifluoromethoxy)ethyl)-3,4-dihydroimidazo[5,1-d][1,2,3,5]tetrazine-8-carboxamide]
30 to 70 µM: EC50 5637 | IC50 5637 | IC50 (CCF-STTG1) | EC50 (SH-4) | IC50 (SH-4) | EC50 (SHP-77)
70 to 150 µM: EC50 (A-253) | IC50 (A-253) | IC50 (SHP-77) | EC50 (SW1088) | IC50 (SW1088) | EC50 (SW620) | IC50 (SW620) | EC50 (VA-ES-BJ)
> 150 µM: IC50 (NCI-H661) | IC50 (VA-ES-BJ)
≤ 30 µM: EC50 (CCF-STTG1) | EC50 (DBTRG-05MG) | IC50 (DBTRG-05MG) | EC50 (DMS53) | IC50 (DMS53) | EC50 (NCI-H661) | EC50 (NCI-H69) | IC50 (NCI-H69) | EC50 (SJRH30) | IC50 (SJRH30) | EC50 (ST486) | IC50 (ST486) | EC50 (SaOS2) | IC50 (SaOS2) | EC50 (TUR) | IC50 (TUR)
